According to patent US8012717B2, “Method for the production of cladribine” (Explora Laboratories S.A., priority 2006, dated 2011):

Format: physicochemical
Experimental: 0.42 g (equal to 2.5 mMoles) of 2-chloroadenine were suspended in 50 ml of DMF and heated while being stirred. Aliquots of DMF were added until a complete hot solubilisation was obtained. 100 ml of solvent were necessary to obtain the solubilisation of the 2-chloroadenine.
A solubilisation test was also carried out of 2-chloroadenine in 25% KOH in order to increase the solubilisation. 4.05 grams of 2-chloroadenine were resuspended in KOH being stirred. Aliquots of (25% w:v) KOH were added until complete solubilisation was obtained. Even after the addition of 100 ml of 25% KOH, the 2-chloroadenine remained practically undissolved.

solubility in 25% KOH: practically insoluble
volume of solvent necessary to obtain the solubilisation: 100 mL
SMILES: Nc1nc(Cl)nc2nc[nH]c12 [2-chloroadenine]
